Results reported in patent US9883675B2, “Method for controlling pests” (SUMITOMO CHEMICAL COMPANY, LIMITED, priority 2013, dated 2018).

Tested on: Diamondback moth (Plutella xylostella)
Experiment: Test Example 1: Japanese radish seed treatment, mortality of Diamondback moth larvae
Assay type: in vivo
Conditions: 48 h, Diamondback moth third instar larvae released 4 days after seeding, observed 2 days after release, average of two replications
Procedure: Each of the present fused heterocyclic compounds 3, 4, 5, 9, 15, 16, 17, 18, 19, 20, 22, 25, 72, 74, 85, 130, 399, 409, 414, 419, 443, 444, 445, 464 and 467 was dissolved in acetone (available from Wako Pure Chemical Industries, Ltd.) containing 5% (W/V) SOLGEN TW-20 (available from Daiichi-Kogyo Seiyaku Co. Ltd.) so as to give a prescribed concentration, and to prepare the testing solution.
Nine (9) grains of the Japanese raddish (Raphanus sativas var. longipinnatus) were placed in a 2 ml volume polypropylene microtube (manufactured by As One Co.) and thereto was added 18 μl of the above testing solution and the seeds in the microtube were shaken and stirred on Stirrer (Trade name: VORTEX-GENIE2, manufactured by Scientific Industries, Inc.). After the testing solution was spread uniformly to the whole seed, the seeds were allowed to air dry.
To a 90 ml volume of plastic cup filled with ten (10) g of culture soil (Trade name: Aisai No. 1; available from Katakura Chikkarin Co., Ltd.) was added water (5 ml) and thereto was seeded three (3) grains of the above seeds.
At four days after the seeding, Diamondback moth (Plutella xylostella) at the third instar larval stages were released in a ratio of 10 (ten) heads of insects per the cup, and then the cups were covered with nylon gauze and covered with a lid (hereinafter, referred to as “treated group”).
On the other hand, Japanese raddish was seeded by the similar procedures to the treated group except that the present fused heterocyclic compound was not dissolved in acetone (available from Wako Pure Chemical Industries, Ltd.) containing 5% (W/V) SOLGEN TW-20 (available from Daiichi-Kogyo Seiyaku Co. Ltd.), and the larvae were released, and the cups were covered with a lid (hereinafter, referred to as “Untreated group”).
At two days after the release, the surviving and death of the larvae were observed and on basis of the results of the observation, the mortalities of both groups were calculated by the following equation 1), respectively. Two replication tests were performed on each group. The average value is shown below. Mortality (%)=(Total number of […])/Total number of Tested insects×100 Equation 1)

## CCS(=O)(=O)c1cc(C(F)(F)F)cnc1-c1nc2cc(C(F)(F)F)cnc2n1C [Present fused heterocyclic compound 5, 2-(3-ethylsulfonyl-5-trifluoromethylpyridin-2-yl)-3-methyl-6-trifluoromethyl-3H-imidazo[4,5-b]pyridine]
Dose 0.01 mg/1 grain of seed
  mortality at 0.01 mg: 100%
Dose 0.2 mg/1 grain of seed
  mortality at 0.2 mg: 100%
